According to US7932270B2 (Cytokinetics, Inc., priority 2006, dated 2011):

Molecular target: T1, chicken gizzard smooth muscle myosin subfragment-1 chemically crosslinked to cardiac or skeletal actin (Gallus gallus, UniProt P10587)
T1 construct: chicken gizzard smooth muscle myosin subfragment-1; from tissue; host or cells: chicken gizzard
Experiment: Smooth muscle myosin ATPase dose response assay (pyruvate kinase/horseradish peroxidase/pyruvate oxidase-coupled, amplex red fluorescence)
Assay type: biochemical
Settings: read-out: IC50 Arithmetic Mean
How it was run: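 ATPase monitored by amplex red fluorescence (ex 480/em 615 nm) via pyruvate oxidase/HRP coupling, pH 7.00, ATP 0.15 mM. Enzyme: smooth muscle S1-actin crosslinked conjugate, amount set empirically by titration. Dose-response fitted with 4-parameter Hill equation for IC50.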

T1 sequence (P02607 2-151): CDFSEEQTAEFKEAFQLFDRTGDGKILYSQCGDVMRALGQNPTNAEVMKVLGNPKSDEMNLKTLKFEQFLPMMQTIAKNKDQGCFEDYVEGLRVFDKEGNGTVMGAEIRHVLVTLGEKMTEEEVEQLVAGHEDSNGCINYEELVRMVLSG
T1 sequence (P10587 84-789): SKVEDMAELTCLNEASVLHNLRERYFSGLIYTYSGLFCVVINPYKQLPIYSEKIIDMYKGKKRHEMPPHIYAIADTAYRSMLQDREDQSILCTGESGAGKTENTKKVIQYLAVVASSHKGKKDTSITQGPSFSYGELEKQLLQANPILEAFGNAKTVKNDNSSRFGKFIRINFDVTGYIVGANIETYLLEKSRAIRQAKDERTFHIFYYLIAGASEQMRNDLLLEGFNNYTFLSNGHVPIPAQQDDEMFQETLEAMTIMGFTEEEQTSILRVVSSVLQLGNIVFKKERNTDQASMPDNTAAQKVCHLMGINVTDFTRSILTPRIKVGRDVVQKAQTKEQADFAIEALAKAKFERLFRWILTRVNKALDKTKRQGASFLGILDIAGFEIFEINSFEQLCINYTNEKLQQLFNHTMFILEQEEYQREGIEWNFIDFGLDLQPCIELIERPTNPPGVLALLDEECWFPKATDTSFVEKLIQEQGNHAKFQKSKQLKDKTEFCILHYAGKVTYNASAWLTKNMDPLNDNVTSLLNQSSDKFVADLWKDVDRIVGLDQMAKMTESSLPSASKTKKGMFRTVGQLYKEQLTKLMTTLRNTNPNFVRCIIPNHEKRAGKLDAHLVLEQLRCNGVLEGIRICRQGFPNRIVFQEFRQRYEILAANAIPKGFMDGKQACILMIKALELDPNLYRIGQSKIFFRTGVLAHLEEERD

| SMILES | IC50 [nM] |
| --- | --- |
| CC(C)(C)OC(=O)NCCCN1C(=O)CC[C@H]1CNC(=O)c1ccc(-c2ccccc2C#N)nc1NCCc1cccc(F)c1 [N-[((2S)-1-{3-[(tert-butoxy)carbonylamino]propyl}-5-oxopyrrolidin-2-yl)methyl](6-(2-cyanophenyl)-2-{[2-(3-fluorophenyl)ethyl]amino}(3-pyridyl))carboxamide] | 4520 |
| Cn1cc(-c2nc(NCCc3cccc(F)c3)c(C(=O)NC[C@H]3CCCN3C(=O)CCCNC(=O)OC(C)(C)C)cc2F)cn1 [N-[((2R)-1-{4-[(tert-butoxy)carbonylamino]butanoyl}pyrrolidin-2-yl)methyl](5-fluoro-2-{[2-(3-fluorophenyl)ethyl]amino}-6-(1-methylpyrazol-4-yl)(3-pyridyl))carboxamide] | 483 |
| Cn1ncc(-c2ccc(C(=O)NCc3cccnc3)c(NCCc3cccc(F)c3)n2)c1C#N [(6-(5-cyano-1-methylpyrazol-4-yl)-2-{[2-(3-fluorophenyl)ethyl]amino}(3-pyridyl))-N-(3-pyridylmethyl)carboxamide] | 20 |
| CNC(=O)[C@H](CN)NC(=O)c1ccc(-c2ccccc2C#N)nc1NCCc1cccc(F)c1 [(2S)-3-amino-2-[(6-(2-cyanophenyl)-2-{[2-(3-fluorophenyl)ethyl]amino}(3-pyridyl))carbonylamino]-N-methylpropanamide] | 3450 |
| O=C(NCc1cccnc1)c1ccc(-c2ccccc2)nc1NCCc1ccc(F)cc1 [(2-{[2-(4-fluorophenyl)ethyl]amino}-6-phenyl(3-pyridyl))-N-(3-pyridylmethyl)carboxamide] | 1610 |
| CC(=O)N1CC(=O)N[C@@H](CNC(=O)c2ccc(-c3ccccc3C#N)nc2NCCc2cccc(F)c2)C1 (stereo in doubt) [N-[(4-acetyl-6-oxopiperazin-2-yl)methyl](6-(2-cyanophenyl)-2-{[2-(3-fluorophenyl)ethyl]amino}(3-pyridyl))carboxamide] | 1630 |
| C[C@@H](CNC(=O)c1ccc(-c2ccccc2C#N)nc1NCCc1cccc(F)c1)N(C)C(=O)CN | 3250 |
| CC(O)[C@H](C)CNC(=O)c1cc(F)c(-c2cnn(C)c2)nc1NCCc1cccc(F)c1 (stereo partly drawn) [N-((2R)-3-hydroxy-2-methylbutyl)(5-fluoro-2-{[2-(3-fluorophenyl)ethyl]amino}-6-(1-methylpyrazol-4-yl)(3-pyridyl))carboxamide] | 283 |
| Cc1ccc(CNC(=O)c2ccc(-c3ccccc3C#N)nc2NCCc2cccc(F)c2)cc1 [(6-(2-cyanophenyl)-2-{[2-(3-fluorophenyl)ethyl]amino}(3-pyridyl))-N-[(4-methylphenyl)methyl]carboxamide] | 24300 |
| CC(=O)N1CCCC(CNC(=O)c2ccc(-c3ccccc3)nc2NCCc2ccccn2)C1 (stereo not shown) [N-[(1-acetyl(3-piperidyl))methyl]{6-phenyl-2-[(2-(2-pyridyl)ethyl)amino](3-pyridyl)}carboxamide] | 48400 |
| O=C(NCc1cccnc1)c1ccc(-c2ccccc2)nc1NCCc1ccccc1Cl [(2-{[2-(2-chlorophenyl)ethyl]amino}-6-phenyl(3-pyridyl))-N-(3-pyridylmethyl)carboxamide] | 160 |
| N#Cc1ccccc1-c1ccc(C(=O)NCC2CCN(C(=O)CCN)C2)c(NCCc2cccc(F)c2)n1 (stereo not shown) [N-{[1-(3-aminopropanoyl)pyrrolidin-3-yl]methyl}(6-(2-cyanophenyl)-2-{[2-(3-fluorophenyl)ethyl]amino}(3-pyridyl))carboxamide] | 270 |
| Cn1cc(-c2ccc(C(=O)NC[C@@H]3CNCC(=O)N3)c(NCCc3cccc(F)c3)n2)cn1 [N-[((2S)-6-oxopiperazin-2-yl)methyl](2-{[2-(3-fluorophenyl)ethyl]amino}-6-(1-methylpyrazol-4-yl)(3-pyridyl))carboxamide] | 13100 |
| Cn1cc(-c2nc(NCCc3cccc(F)c3)c(C(=O)NC[C@H]3CCCN3C(=O)CCCNC(=O)OC(C)(C)C)cc2C#N)cn1 [N-[((2R)-1-{4-[(tert-butoxy)carbonylamino]butanoyl}pyrrolidin-2-yl)methyl](5-cyano-2-{[2-(3-fluorophenyl)ethyl]amino}-6-(1-methylpyrazol-4-yl)(3-pyridyl))carboxamide] | 1610 |
| O=C(NC[C@H]1CCN1)c1cc(F)c(-c2cn[nH]c2)nc1NCCc1cccc(F)c1 [N-[((2R)azetidin-2-yl)methyl](5-fluoro-2-{[2-(3-fluorophenyl)ethyl]amino}-6-pyrazol-4-yl(3-pyridyl))carboxamide] | 466 |
| N#Cc1ccccc1-c1ccc(C(=O)NC[C@H]2CCCN2S(=O)(=O)CCCN)c(NCCc2cccc(F)c2)n1 [N-({(2R)-1-[(3-aminopropyl)sulfonyl]pyrrolidin-2-yl}methyl)(6-(2-cyanophenyl)-2-{[2-(3-fluorophenyl)ethyl]amino}(3-pyridyl))carboxamide] | 234 |
| N#Cc1ccc(F)cc1-c1ccc(C(=O)NCc2cccnc2)c(NCCc2cccc(F)c2)n1 [(6-(2-cyano-5-fluorophenyl)-2-{[2-(3-fluorophenyl)ethyl]amino}(3-pyridyl))-N-(3-pyridylmethyl)carboxamide] | 53 |
| N#Cc1ccccc1-c1ccc(C(=O)NCc2cccnc2Cl)c(NCCc2cccc(F)c2)n1 [N-[(2-chloro(3-pyridyl))methyl](6-(2-cyanophenyl)-2-{[2-(3-fluorophenyl)ethyl]amino}(3-pyridyl))carboxamide] | 72 |
| CC(C)[C@H](CNC(=O)c1ccc(-c2ccccc2C#N)nc1NCCc1cccc(F)c1)NC(=O)CN [N-((1R)-1-{[(6-(2-cyanophenyl)-2-{[2-(3-fluorophenyl)ethyl]amino}(3-pyridyl))carbonylamino]methyl}-2-methylpropyl)-2-aminoacetamide] | 939 |
| CNCCNC(=O)CNC(=O)c1ccc(-c2ccccc2C#N)nc1NCCc1cccc(F)c1 [2-[(6-(2-cyanophenyl)-2-{[2-(3-fluorophenyl)ethyl]amino}(3-pyridyl))carbonylamino]-N-[2-(methylamino)ethyl]acetamide] | 11100 |
| N#Cc1ccccc1-c1ccc(C(=O)NCc2cccc(C(=O)O)n2)c(NCCc2cccc(F)c2)n1 [6-{[(6-(2-cyanophenyl)-2-{[2-(3-fluorophenyl)ethyl]amino}-3-pyridyl)carbonylamino]methyl}pyridine-2-carboxylic acid] | 47 |
| O=C1CCCCC(CNC(=O)c2ccc(-c3cn[nH]c3)nc2NCCc2cccc(F)c2)N1 (stereo not shown) [(2-{[2-(3-fluorophenyl)ethyl]amino}-6-pyrazol-4-yl(3-pyridyl))-N-[(7-oxoazaperhydroepin-2-yl)methyl]carboxamide] | 687 |

Next, values leading:

| IC50 [nM] | SMILES |
| --- | --- |
| 809 | CN(C)c1ccc(-c2ccc(C(=O)NCc3cccnc3)c(NCCc3ccccn3)n2)cc1 [{6-[4-(dimethylamino)phenyl]-2-[(2-(2-pyridyl)ethyl)amino](3-pyridyl)}-N-(3-pyridylmethyl)carboxamide] |
| 66 | NCCCN1C(=O)CC[C@@H]1CNC(=O)c1cc(F)c(-c2cn[nH]c2)nc1NCCc1cccc(F)c1 [N-{[(2R)-1-(3-aminopropyl)-5-oxopyrrolidin-2-yl]methyl}(5-fluoro-2-{[2-(3-fluorophenyl)ethyl]amino}-6-pyrazol-4-yl(3-pyridyl))carboxamide] |
| 65 | N#Cc1ccccc1-c1ccc(C(=O)NCc2cccnc2)c(NCCc2ccco2)n1 [{6-(2-cyanophenyl)-2-[(2-(2-furyl)ethyl)amino](3-pyridyl)}-N-(3-pyridylmethyl)carboxamide] |
| 359 | N#Cc1cc(C(=O)NC[C@H]2CCCN2C(=O)CCCN)c(NCCc2cccc(F)c2)nc1-c1cn[nH]c1 [N-{[(2R)-1-(4-aminobutanoyl)pyrrolidin-2-yl]methyl}(5-cyano-2-{[2-(3-fluorophenyl)ethyl]amino}-6-pyrazol-4-yl(3-pyridyl))carboxamide] |
| 12400 | N#Cc1ccccc1-c1ccc(C(=O)NC[C@H]2CN(C(=O)CCCN)CCN2)c(NCCc2cccc(F)c2)n1 [N-{[(2S)-4-(4-aminobutanoyl)piperazin-2-yl]methyl}(6-(2-cyanophenyl)-2-{[2-(3-fluorophenyl)ethyl]amino}(3-pyridyl))carboxamide] |
| 6940 | Cc1cccc(-c2ccc(C(=O)NCc3cccnc3)c(NCCc3ccccn3)n2)c1C [{6-(2,3-dimethylphenyl)-2-[(2-(2-pyridyl)ethyl)amino](3-pyridyl)}-N-(3-pyridylmethyl)carboxamide] |
| 2380 | COC(=O)[C@@H](CN)NC(=O)c1ccc(-c2ccccc2C#N)nc1NCCc1cccc(F)c1 [methyl (2R)-3-amino-2-[(6-(2-cyanophenyl)-2-{[2-(3-fluorophenyl)ethyl]amino}(3-pyridyl))carbonylamino]propanoate] |
| 4890 | N#Cc1ccccc1-c1ccc(C(=O)NC[C@H]2CNCCN2C(=O)CCN)c(NCCc2cccc(F)c2)n1 [N-{[(2R)-1-(3-aminopropanoyl)piperazin-2-yl]methyl}(6-(2-cyanophenyl)-2-{[2-(3-fluorophenyl)ethyl]amino}(3-pyridyl))carboxamide] |
| 307 | CNC(=O)N1CCC[C@@H]1CNC(=O)c1ccc(-c2ccccc2C#N)nc1NCCc1cccc(F)c1 [N-{[(2R)-1-(N-methylcarbamoyl)pyrrolidin-2-yl]methyl}(6-(2-cyanophenyl)-2-{[2-(3-fluorophenyl)ethyl]amino}(3-pyridyl))carboxamide] |
| 47 | Cn1cc(-c2nc(NCCc3cccc(F)c3)c(C(=O)NC[C@H]3CCN3C(=O)CO)cc2F)cn1 [N-{[(2R)-1-(2-hydroxyacetyl)azetidin-2-yl]methyl}(5-fluoro-2-{[2-(3-fluorophenyl)ethyl]amino}-6-(1-methylpyrazol-4-yl)(3-pyridyl))carboxamide] |
| 84500 | COCc1ccccc1-c1ccc(C(=O)NCc2cccnc2)c(NCCc2ccccn2)n1 [{6-[2-(methoxymethyl)phenyl]-2-[(2-(2-pyridyl)ethyl)amino](3-pyridyl)}-N-(3-pyridylmethyl)carboxamide] |
| 101 | COC(=O)N1CCC[C@@H]1CNC(=O)c1ccc(-c2ccccc2C#N)nc1NCCc1cccc(F)c1 [methyl (2R)-2-{[(6-(2-cyanophenyl)-2-{[2-(3-fluorophenyl)ethyl]amino}(3-pyridyl))carbonylamino]methyl}pyrrolidinecarboxylate] |
